Experimental data: patent US20070122376A1, “Pheromones and method of preventing infestation of Contarinia nasturtii” (priority 2004, published 2007)

Key:
male C. nasturtii = experiment: Wind tunnel assay of male response (landing on odour source); type: in vivo, Contarinia nasturtii; conditions: for landings on the odor source, response to single component: each component tested individually at the concentrations indicated (FIG. 4), N>=20; for males flying towards the odour source: single components tested individually
Protocol: Calling females were collected from the laboratory culture and submersed in batches in hexane (p.a. grade) for 15 min at room temperature. The supernatant was then decanted and concentrated to the highest concentration tested by blowing off the hexane with N2.
Wind tunnel experiments were performed in the 2nd to 4th hour of the photophase at 22° C. and 73% r.h. in a wind tunnel described in detail by Rauscher et al. (1984). Compounds were diluted in hexane (p.a. grade). For the bioassays, 10 p 1 of the stimulus to be tested was applied onto a piece of fitter paper (Chromatographiepapier “Schleicher & Schuell AG” Auer-Bittmann Soulié AG, Zurich, Switzerland, 69.2 gr/m2, 1 cm^2)which was then placed in the air stream at least 20 sec before the first male was tested. For each stimulus, a series of five males were tested individually, requiring a total of 5-10 min for each series. For each series, a new piece of filter paper was loaded with the respective stimulus.
Males were kept individually in glass tubes (10 cm, 15 mm i.d.) closed at one end with a piece of screen (mesh size 1×1 mm) until they were tested. With these tubes they were transferred into the wind tunnel, where the tube was placed on a pole in horizontal position with the opening upwind, at a distance of 130 cm downwind from the odor source. Time recording was then started and the following steps recorded. Activation by wing-fanning, take off, directed flight towards the odor source, flights closer than 30 cm from the source (“close in”), landing on the source or elsewhere. The test was stopped when no activity or take off was registered during […] or when the insect landed elsewhere.
Of the recorded parameters only the number of successful landings on the source were analyzed

male antenna = experiment: GC-EAD electrophysiological recording of male antennal response; design: species or system Contarinia nasturtii; conditions: natural peaks of ovipositor extract, identified by mass spectra and coelution with synthetics
Protocol: The pots with infested soil were put in glass cages (28×28×33 cm) and kept at L/D 18/6, 25° C., and RH 70% for the adults to emerge. After emergence, males and females were transferred to separate cages. Females were kept under the conditions mentioned and males were kept at L/D 18/6, 15° C., and RH 75%. […] The ovipositors were collected in a vial kept in liquid nitrogen and then extracted for 1-2 min redistilled hexane (LabScan). Extracts were kept in sealed glass capillaries at −18° C. until use.
Male antennal response to ovipositor extracts was analyzed by gas chromatography 25 with electroantennographic detection (GC-EAD). The GC used was a Hewlett Packard 6890 GC with flame ionization detection and an Innowax column (30m×0.25 mm ID, Hewlett Packard, USA). The column temperature was programmed from 80° C. (2 min hold) to 230° C. at 10° C./min. The antennal recordings were made using a Plexiglass holder with two wells connected to an amplifier by gold wire electrodes (JoAC, Lund, Sweden; Zhang et al., 1997; Hillbur, 2001). Male insects were mounted in the holder as described by Hillbur et al. (2000). […] Antennal signals were amplified (JoAC) before they were recorded and analyzed with ElectroAntennoGraphy software (Syntech, Hilversum, The Netherlands).

Row | SMILES | most attractive concentration of (2S)-acetoxyundecane in blend (male C. nasturtii; blends with 1.5 ng/dispenser (2S,9S)- and 3.0 ng/dispenser (2S,10S)-diacetoxyundecane) [ng/dispenser] | effect of higher concentrations of (2S)-acetoxyundecane on proportion of male landing (male C. nasturtii; concentrations higher than 0.03 ng/dispenser in blend with 1.5 ng 2S,9S and 3.0 ng 2S,10S) | landings on the odor source, response to single component (male C. nasturtii) | males flying towards the odour source (male C. nasturtii) | male antennal response (GC-EAD) (male antenna)
1 | CCCCCCCCC[C@H](C)OC(C)=O [(2S)-acetoxyundecane, (2S)-Acetoxyundecane] | 0.03 | inhibitory | 0 | no males flew towards the odour source | 
2 | CC[C@@H](CCCCCC[C@H](C)OC(C)=O)OC(C)=O [(2S,9S)-diacetoxyundecane, (2S,9S)-Diacetoxyundecane] |  |  | 0 | no males flew towards the odour source | EAD-active
3 | CC(=O)O[C@@H](C)CCCCCCC[C@H](C)OC(C)=O [(2S,10S)-diacetoxyundecane, (2S,10S)-Diacetoxyundecane] |  |  | 0 | no males flew towards the odour source | EAD-active
